Laboratory results: US20220220106A1, “QUINOLINE COMPOUNDS AND PHARMACEUTICAL COMPOSITIONS AND USES THEREOF” (Academy of Military Medical Sciences, priority 2019, published 2022)

Legend:
RD cells = assay: Detection of cytotoxicity in RD cells (CellTiter-Glo); assay type: cell-based; details: 4 days, CellTiter-Glo, median toxic dose
Method in brief: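 RD cells (1*10^5/mL) cultured 4 days at 37 °C with 10 compound concentrations from 3-fold dilution of a 400 μM pretreatment solution, final being 0.5 times that. Viability by CellTiter-Glo luminescence versus cell control; TD50 from S-curve fit; SI=TD50/IC50.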

mTORC2 = molecular target: T1, mTORC2 (Homo sapiens, UniProt P42345); assay: Western blot, phosphorylation of Ser473 of Akt in RD cells (mTORC2 inhibition); assay type: cell-based; details: 20 μM, 2 hours, Western blot (FIG. 1)
T1 construct: endogenous in cells; host or cells: RD cells
Protocol: In order to test the inhibitory activity of the synthesized compounds on the two mTOR complexes, the inhibitory activity experiments of mTORC1 and mTORC2 were carried out. Since mTORC1 and mTORC2 exerted their function by activating the phosphorylation of downstream substrates, the inhibitory activity of the compounds on mTORC1 and mTORC2 could be determined by detecting the phosphorylation levels of the Thr389 site of mTORC1 downstream substrate p70S6K1 and the Ser473 site of mTORC2 downstream substrate Akt.
Pretreatment of Compound:
(1) RD cells were cultured in DMEM medium containing 10% FBS and 1×PS (penicillin and streptomycin were at concentrations 100 IU and 100 μg/mL, respectively) at 37° C. and 5% CO2.
(2) The RD cells (5×10^5 cells/2 mL medium) were inoculated into a 6-well plate and incubated at 37° C. and 5% CO2 for 24 hours.
(3) The cells were washed once with PBS, and the cells were cultured in serum-free medium without nutrients overnight.
(4) Formulation of compounds: […]
Preparation of insulin medium: Insulin was diluted in DMEM medium containing 10% FBS and 1×PS so that the final concentration of insulin was 167 nM.
Pretreatment of compound to be tested: The compound was dissolved in DMSO so that the concentration of the test compound was 20 mM, and the compound was diluted in 167 nM insulin medium to reach a concentration of 20 μM.
Preparation of rapamycin solution: Rapamycin was dissolved in DMSO to a concentration of 10 mM, and the rapamycin was diluted in 167 nM insulin medium to reach a concentration of 20 μM.
(5) The serum-free medium in each well was removed.
(6) 2 mL of complete medium containing DMSO was added to each well as a control carrier. The final concentration of DMSO was 0.2%.
(7) 2 mL of 20 μM rapamycin solution and 20 μM the compound to be tested were added to the designated wells, respectively. The final concentration of DMSO was 0.2%.
(8) The cells were incubated for 2 hours at 37° C. and 5% CO2.
Protein extraction and concentration determination:
(1) The cells were washed once with refrigerated PBS, and then the PBS was discarded.
(2) 150 μL of cell extraction buffer (RIPA, […], catalog number: C1053) was transferred into each well to lyse the cells, and then the resulting cell solution were incubated on ice for 30 minutes.
(3) Centrifugation was performed at 14000 rpm (13000× g) for 30 minutes at 4° C.
(4) The supernatant was transferred into a new eppendorf tube, and the cell lysate was stored at −80° C. before testing.
(5) The protein concentration was determined by BCA method.
Preparation of Buffer Solutions:
(1) 100× Protease inhibitor (Beyotime, catalog number: P1005): 1 mL of redistilled water was added to the protease inhibitor and stirred gently until the solid was completely dissolved.
(2) Lysis Buffer: […] of 100× protease inhibitor and 2× phosphatase inhibitor Cocktails PhosSTOP (Beyotime, catalog number: P1082) were added to 100 mL of the cell extract, and stirred gently until it was completely dissolved.
(3) Electrophoresis Running Buffer:
10×MOPS buffer: 52.33 g of MOPS, 30.29 g of Tris base, 10 mL of 0.5 mol/L EDTA (pH 8.5) and 5 g of SDS was dissolved in 400 mL of redistilled water, stirred to dissolve, and the pH was adjusted to 7.5, then redistilled water was added again to reach a volume of 500 mL; 1×MOPS: 100 mL of 10×MOPS was diluted with redistilled water to 1000 mL.
(4) 1× Transfer Buffer: […] of 10× transfer buffer (144 g of glucine, 30.3 g of trisbase, and distilled water were mixed to reach a volume of 1 L) and 400 mL of methanol were dissolved in 1500 mL of redistilled water, and then the redistilled water was added to reach a volume of 2000 mL. […]

| SMILES | TD50 (RD cells) [µM] | phosphorylation expression level of Akt (mTORC2) |
| --- | --- | --- |
| O=c1ccc2cnc3ccc(-c4ccc(F)nc4)cc3c2n1-c1cccc(C(F)(F)F)c1 [HTL-7-01, 9-[3-(6-fluoro)pyridyl]-2-oxo-1-[3-(trifluoromethyl)phenyl]-1,2-dihydrobenzo[h][1,6]naphthyridine] | 0.23 ± 0.33 | significantly down-regulate |
| Cc1ncccc1-c1ccc2ncc3ccc(=O)n(-c4cccc(C(F)(F)F)c4)c3c2c1 [HTL-6-49, 9-[3-(2-methyl)pyridyl]-2-oxo-1-[3-(trifluoromethyl)phenyl]-1,2-dihydrobenzo[h][1,6]naphthyridine] | 0.07 ± 0.00 | significantly down-regulate |
| CN1CCN(c2ccc(-c3ccc4ncc5ccc(=O)n(-c6cccc(C(F)(F)F)c6)c5c4c3)cn2)CC1 [HTL-7-17, 9-{3-[6-(4-methylpiperazin-1-yl)pyridyl]}-2-oxo-1-[3-(trifluoromethyl)phenyl]-1,2-dihydrobenzo[h][1,6]naphthyridine] | 0.18 ± 0.15 | significantly down-regulate |
| COc1ccc(-c2ccc3ncc4ccc(=O)n(-c5cccc(C(F)(F)F)c5)c4c3c2)cn1 [HTL-7-03, 9-[3-(6-methoxy)pyridyl]-2-oxo-1-[3-(trifluoromethyl)phenyl]-1,2-dihydrobenzo[h][1,6]naphthyridine] | 0.13 ± 0.03 | significantly down-regulate |
| CC(C)(C)OC(=O)Nc1ccc(-c2ccc3ncc4ccc(=O)n(-c5cccc(C(F)(F)F)c5)c4c3c2)cn1 [HTL-7-21, 9-[3-(6-tert-butoxycarbonylamino)pyridyl]-2-oxo-1-[3-(trifluoromethyl)phenyl]-1,2-dihydrobenzo[h][1,6]naphthyridine] | 0.69 ± 0.50 | significantly down-regulate |
| COc1ncc(-c2ccc3ncc4ccc(=O)n(-c5cccc(C(F)(F)F)c5)c4c3c2)cn1 [HTL-7-06, 9-[5-(2-methoxy)pyrimidyl]-2-oxo-1-[3-(trifluoromethyl)phenyl]-1,2-dihydrobenzo[h][1,6]naphthyridine] | 0.17 ± 0.06 | significantly down-regulate |
| Nc1cccc(Nc2ccc3ncc4ccc(=O)n(-c5cccc(C(F)(F)F)c5)c4c3c2)c1 [HTL-6-11, 9-(3-aminophenyl)imino-2-oxo-1-[3-(trifluoromethyl)phenyl]-1,2-dihydrobenzo[h][1,6]naphthyridine] | 7.58 ± 1.24 | significantly down-regulate |
